“Also recorded” adds a separate entry of the source.
How the values were obtained:
[1] = molecular target: T1, P2Y11 receptor (Homo sapiens, UniProt Q96G91); assay: Multiplex DAG2 and R-GECO1 sensors with P2Y11 receptor in HEK 293 cells; type: cell-based; design: expressed in transfected cells; host or cells: HEK 293; details: HEK cells expressing human P2Y11 receptor
T1 sequence (Q96G91 1-374): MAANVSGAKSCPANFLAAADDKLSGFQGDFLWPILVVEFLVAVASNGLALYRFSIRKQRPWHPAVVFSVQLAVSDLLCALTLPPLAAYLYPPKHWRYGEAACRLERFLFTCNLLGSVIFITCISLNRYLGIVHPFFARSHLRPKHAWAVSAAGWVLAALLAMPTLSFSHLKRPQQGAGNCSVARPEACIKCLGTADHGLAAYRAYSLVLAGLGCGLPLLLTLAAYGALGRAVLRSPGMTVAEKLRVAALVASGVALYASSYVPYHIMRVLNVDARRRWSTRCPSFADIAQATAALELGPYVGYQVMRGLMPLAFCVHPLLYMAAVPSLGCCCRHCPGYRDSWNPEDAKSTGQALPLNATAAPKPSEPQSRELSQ
Source text: To explore whether multiplex sensors could be used to detect this distinct signaling pattern, we expressed the human P2Y11 receptor with combinations of the Downward DAG2, or Upward DAG2, and R-GECO1 sensors. […] (FIG. 8).

[2] = molecular target: T1, P2Y11 receptor; details: reported in reference (29), different cell line; cited from earlier work
[3] = test system: DAG sensors; assay: Effect of DMSO on the DAG assay; type: cell-based
Description: Many compound libraries are carried by DMSO, a vehicle that can cause artifacts in live cell assays. […] At moderate final concentrations of 0.1 to 1%, the DMSO produced no effect, while at higher concentrations artifactual, DMSO triggered changes in fluorescence did occur. The effect of DMSO on the DAG sensors was negligible at final concentrations of 0.1 to 1%, but detectable at 2% or greater.

[4] = test system: DAG sensors; assay: Direct activation of DAG sensors in cells by phorbol ester PDBu; type: cell-based
Source text: In transient expression it is possible to produce high concentrations of the protein-based sensor than the analyte itself [Falkenburger et al].
(§1) To test for the independence of the signals being detected by these sensors, we increased intracellular Ca2+ by applying ionomycin.

[5] = test system: PIP2 and DAG; assay: Co-expressed PIP2r and DAG sensors, M1 receptor activation (PLC substrate and product); type: cell-based; details: PIP2r co-expressed with DAG sensor, FIG. 7A
Source text: Stimulation of phospholipase C cleaves PIP2 and produces DAG. Co-expression of the Upward DAG2 or Downward DAG2 sensor with the PIP2r sensor provides a new view of both the substrate and product of phopholipase C (FIG. 7). To our knowledge, this is the first time that genetically encoded biosensors have been used to simultaneously measure substrate and product. M1 receptor activation produced a remarkable change in the intensity and distribution of both sensors. […] The onset of the response of the Upward and Downward DAG2 sensors, as well as PIP2r, is kinetically quite similar. However the return to baseline is considerably slower for the Downward DAG2 and PIP2r sensors (FIG. 7B).

[6] = test system: DAG; assay: DAG sensor fluorescence change on carbachol stimulation of co-expressed M1 receptor in HEK 293 cells (time-lapse imaging); type: cell-based, human
Source text: These changes were easily detected in time-lapse imaging and occurred in all transfected cells with remarkably little cell to cell variability. […] The signals then returned to baseline quite slowly (t-170 seconds, FIG. 3C).

[7] = test system: intracellular Ca2+; assay: Independence test: ionomycin raises intracellular Ca2+ in cells expressing Ca2+, DAG or PIP2 sensors; type: cell-based
Source text: as §1

[8] = test system: PIP2; assay: PIP2 sensor response to M1 receptor activation; type: cell-based; details: FIGS. 6A and B
Source text: Phospholipase C hydrolyses PIP2 to produce both DAG and IP3. To independently check the fidelity and kinetics of the DAG sensors, we created a red fluorescent PIP2 sensor by fusing the pleckstrin homology (PH) domain of PLCδ to two different components of the recently described dimerization-dependent red fluorescent proteins (26). Previous work has shown that the translocation of the PLCδ PH domain can be used to measure PIP2 turnover (27), and if the PH domains carry FRET pairs of fluorescent proteins a small change in FRET occurs when PLC is activated (28). […] Because this sensor relies on the fluorescence of one protein, rather than a FRET pair, it could be multiplexed with the green fluorescent DAG sensors for simultaneous measurement of both PIP2 and DAG in living cells. The amino acid sequences of this pair of constructs forming a novel PIP2 sensor are shown as SEQ ID NO:70 and SEQ ID NO:71, and the nucleotide sequences encoding them are shown as SEQ ID NO:72 and SEQ ID NO:73.

[9] = carbachol stimulation of the M1 receptor

For `O=c1ccn([C@@H]2O[C@H](COP(=O)(O)OP(=O)(O)OP(=O)(O)O)[C@@H](O)[C@H]2O)c(=O)[nH]1` [UTP], the “Ca2+ response (R-GECO1)” value [1] is listed as “triggered a Ca2+ response; also recorded: transient increase in Ca2+”, the “PLC pathway signaling (Upward or Downward DAG2 sensors)” value [1] is listed as “causing a Ca2+ transient in a very different way; also recorded: producing a Ca2+ transient through a different pathway” and the “signaling at the P2Y11 receptor as reported” value [2] is listed as “only triggers a Ca2+ response”.

With `C[S+](C)[O-]` [DMSO] the “effect of DMSO on the DAG sensors” value ([3]; 2% or greater) was “detectable” and the “effect of DMSO on the DAG sensors” value ([3]; final concentrations of 0.1 to 1%) was “negligible; also recorded: no effect”.

In the case of `CCCC(=O)O[C@@H]1[C@@H](C)[C@@]2(O)[C@@H](C=C(CO)C[C@]3(O)C(=O)C(C)=C[C@@H]23)[C@@H]2C(C)(C)[C@]12OC(=O)CCC` [PDBu], the “additional change in sensor fluorescence on PDBu applied after carbachol” value ([4]; cells first stimulated with carbachol, then PDBu) is reported as “additional increase in fluorescence; also recorded: additional doubling of the change in intensity” and the “activation of DAG sensor by PDBu added after ionomycin” value ([4]; subsequent addition after ionomycin, FIG. 4C) is reported as “activates Downward DAG; also recorded: subsequently activated”.

For “Upward DAG: DAG sensor: cpEGFP at N158 of PKC delta truncated at L122; fluorescence increases upon binding to DAG”, the “change in sensor fluorescence on M1 receptor activation” value [5] was “green fluorescence increases” and the fluorescence increase [6, 9] was 45%.

For `Nc1ncnc2c1ncn2[C@@H]1O[C@H](COP(=O)(O)OP(=O)(O)OP(=O)(O)O)[C@@H](O)[C@H]1O` [ATP], the “Ca2+ response (R-GECO1)” value [1] is given as “triggered a Ca2+ response; also recorded: transient increase in Ca2+”, the “PLC pathway signaling (Upward or Downward DAG2 sensors)” value [1] is given as “triggers signaling via the phospholipase C pathway; also recorded: activating the PLC pathway” and the “signaling at the P2Y11 receptor as reported” value [2] is given as “produces inositol phosphate turnover and transient Ca2+ signaling”.

With `C[C@H](CCC(=O)O)C[C@H](C)C[C@H](C)C(=O)/C=C(\O)[C@H](C)C[C@H](C)C/C=C/[C@@H](C)[C@@H](O)[C@@H](C)[C@@H](O)C[C@@H]1CC[C@@](C)([C@H]2CC[C@@](C)([C@@H](C)O)O2)O1` [ionomycin] the “effect of raising intracellular Ca2+ on DAG and PIP2 levels” value ([7]; ionomycin added before PdBU or M1 receptor activation, FIGS. 6C and D) was “no apparent effect on the DAG and PIP2 levels”, the “R-GECO (Ca2+ sensor) response” value ([7]; ionomycin applied, FIG. 4C) was “produces a change in R-GECO; also recorded: robust R-GECO1 response” and the “change in DAG sensor” value ([7]; ionomycin applied, FIG. 4C) was “not Downward DAG; also recorded: no detectable change in the DAG sensor”.

For “Downward DAG: DAG sensor: cpEGFP at K152 of PKC delta truncated at L122; fluorescence decreases upon binding to DAG”, the “loss (decrease) in fluorescence” value [6, 9] was 40% and the “time over which the fluorescence loss occurs” value ([6]; mean of 4 cells) was 15 s.

B1: PIP2 sensor: red fluorescent PIP2 sensor: PH domain of PLCδ fused to each member of the ddRFP pair (protein)
chain 1: MVSKSEEVIKEFMRFKVRLEGSMNGHEFEIEGEGEGRPYEGTQTAKLKVTKGGPLPFAWDILSPQIMYGSKAYVKHPADVPDYMKLSFPEGFKWERVMHFEDGGLVTVTQDTSLQDGTLIYKVKMRGTNFPPDGPVMQKKTLGWDYATERLYPEDGVLKGELLGRLKLKDGGLNLVEFKTIYMAKKPVQLPGYYFVDTKLGITSHNEDYTIVEQYERSEGRHHLGMDELYKRSRAQASNSAVDGTAGPGSMDSGRDFLTLHGLQDDEDLQALLKGSQLLKVKSSSWRRERFYKLQEDCKTIWQESRKVMRTPESQLFSIEDIQEVRMGHRTEGLEKFARDVPEDRCFSIVFKDQRNTLDLIAPSPADAQHWVLGLHKIIHHSGSMDQRQKLQHWIHSCLRKADKNKDNKMSFKELQNFLKELNIQ
chain 2: MVSKGEETIKEFMRFKVRMEGSMNGHEFEIEGEGEGRPYEGTQTAKLKVTKGGPLPFAWDILSPQFMYGSEAYVRHPADIPDYKKLPFPEGFKWERVMNFEDGGLVTVTQDSSLQDGTLICKVKMRGTNFPPDGPVMQKKTMGWEASTEMLYPEDGVLKGHSYQALKLKDGGHYLVEFETIYMAKKPVQLPGDYCVDTKLDITSHNEDYTIVEQYGRSEGRHRLGMDERYKRSRAQASNSAVDGTAGPGSMDSGRDFLTLHGLQDDEDLQALLKGSQLLKVKSSSWRRERFYKLQEDCKTIWQESRKVMRTPESQLFSIEDIQEVRMGHRTEGLEKFARDVPEDRCFSIVFKDQRNTLDLIAPSPADAQHWVLGLHKIIHHSGSMDQRQKLQHWIHSCLRKADKNKDNKMSFKELQNFLKELNIQ
modifications: Synthetic sequence, a.a. sequence of PIP2 sensor fragment [PIP2-A1]; Synthetic sequence, a.a. sequence of PIP2 sensor fragment [PIP2-B1]
notes: red fluorescent PIP2 sensor: PH domain of PLCδ fused to each member of the ddRFP pair
For B1, the “change in sensor fluorescence on M1 receptor activation” value [5] was “red fluorescence decreases” and the “red fluorescent signal at the membrane with M1 receptor activation” value [8] was “rapidly disappeared”.
